Source: patent publication US6673902B2, “Cyclin D binding factor, and uses thereof” (St. Jude Children's Research Hospital, priority 1996, dated 2004)

What was measured:
32P-BS2 Probe = experiment: EMSA with 32P-BS2 probe on transfection lysates of NIH-3T3 fibroblasts; format: binding; conditions: EMSA, 32P-BS2 probe, lysates of transfected NIH-3T3 fibroblasts
Experimental: (§1) Double-stranded oligonucleotides containing potential DMP1 binding sites (BS1 and BS2) and mutated versions (M1-M4) (FIG. 5B) are end-labeled with ^32P using the Klenow fragment of DNA polymerase and α-^32P-dATP (6000 Ci/mmol; Dupont NEN) (8). Nuclear extracts from mouse NIH-3T3 or CTLL cells are prepared with buffer containing 0.4 M NaCl (2). Mammalian cell extracts (15 μg protein) or Sf9 lysates (corresponding to 5×10^2 infected cells) containing ˜4 ng recombinant DMP1 are mixed with 3 ng of ^32P-labeled probe (1×10^5 cpm) in 15 ul Binding buffer containing 2.5 μg of poly(dI-dC) and 2.5 μg BSA and incubated at 4° C. for 30 minutes. For competition experiments, the indicated amounts of unlabeled oligonucleotides are added to the reactions before addition of the labeled probe. In some experiments, a bacterially produced GST-Ets2 fusion protein containing the complete Ets2 DNA-binding domain (10) is used in place of Sf9 extracts containing recombinant DMP1. Protein-DNA complexes are separated on nondenaturing 4% polyacrylamide gels as described (8). Where indicated, antiserum to DMP1 together with 2.5 μg salmon testis DNA (Sigma; used to reduce nonspecific DNA binding activity caused by serum addition) is preincubated with extracts for 30 minutes at 4° C. prior to initiation of binding reactions. Immune complexes are either removed by adsorption to protein A-Sepharose beads (immunodepletion experiments) or are allowed to remain (“supershift” experiments).
A series of deletion mutants and a point mutant of DMP1, K319E, (in which the lysine at position 319 of SEQ ID NO:1 is replaced by a glutamic acid) were prepared and used to determine the DNA-binding domain of DMP1 by electrophoretic mobility shift assay (EMSA) using a ^32P labeled BS2 probe. The DNA-binding domain of DMP1 was mapped to a central region containing the three MYB repeats plus adjacent flanking sequences: a BstEII to NcoI fragment encoding amino acids 87-458 of SEQ ID NO:1 (Table 1). This region alone was necessary and sufficient for DNA binding.

[1] = tested on: DMP1-responsive promoter (pGL2BS2); experiment: Transactivation of luciferase reporter plasmid under control of a DMP1-responsive promoter in NIH-3T3 fibroblasts; format: cell-based, mouse; conditions: expression vector 3 μg/10 ml, pGL2BS2 8 μg/10 ml; vector without insert set to 1.0
From the text: Coexpression of a D-type cyclin with DMP1 overrides the ability of DMP1 to transactivate a luciferase gene under the control of an artificial DMP1-responsive promoter (Table 4), as well as the ability of DMP1 to inhibit cell growth.

NIH-3T3 fibroblasts = experiment: BrdU incorporation in transfected NIH-3T3 fibroblasts; format: cell-based, mouse; conditions: for % Cells BrdU Positive: Table 2, expression vector 3 μg/10 ml; for % Cells BrdU Positive in 10% FCS: nonstarved cells; for % Cells BrdU Positive in 10% FCS / % Cells BrdU Positive in 0.1% FCS: additive None, labeled 22 hours; for % Cells BrdU Positive in 0.1% FCS: starved cells
Experimental: BrdU is added to NIH-3T3 cells after the experimental treatment and the cells were incubated for twenty-two hours in DMEM plus 10% fetal calf serum (FCS). The cells were then stained for DMP1 expression and/or BrdU incorporation. The nucleic acids encoding the wildtype DMP1 and the deletion and point mutants had been constructed so as to express the corresponding proteins with Flag-tags. To stain for DMP1 expression, mouse monoclonal anti-Flag antibodies (12 μg/ml) [Kodak] were incubated with the cells in TBS-Ca^+ without FCS for one hour at room temperature. After washing the cells, horse anti-mouse biotinylated antibodies at a 1:500 dilution were added to the cells in TBS plus 5% FCS and incubated for 30 minutes at room temperature. After washing the cells, strefptavidin linked to Texas red [Amersham] was then added at a 1:500 dilution for 30 minutes at room temperature. To stain for BrdU incorporation, 1.5N HCl was added to the cells for ten minutes at room temperature to denature the DNA. After washing the cells, sheep anti-BrdU antibodies [Fitzgerald] at a 1:12 dilution were then added for one hour at room temperature. After washing the cells, rabbit FITC-conjugated anti-sheep antibodies [Vector] at 1:100 dilution was then incubated for 30 minutes at room temperature.
NIH-3T3 cells were placed on cover slides and transfected with the expression vectors (pFLEX-DMP1 or the corresponding vector containing the deletion or point mutants of mouse DMP1 plus or minus cyclin D or E) for fourteen hours. The cells were then washed twice and DMEM plus 10% FCS was added and the cells incubated for eight hours. Half of the cells were starved by washing twice with 0.1% FCS, and then incubated for twenty-four hours in 0.1% FCS in DMEM. The remaining cells were not starved but were incubated for twenty-four hours in DMEM plus 10% FCS without washing. BrdU was added to both groups of cells and the cells were incubated for twenty-two hours in DMEM plus 10% FCS.
The cells were then restimulated to enter the cell cycle synchronously with DMEM plus 10% FCS. At the same time, 5′-Bromo-2′ Deoxyuridine (BrdU) was added to the medium. The cells were fixed 22 hours later in methanol acetone (1:1) and stained for BrdU incorporation and DMP1 expression as described in the Materials and Methods.

recombinant DMP1 = biological target: T1, recombinant DMP1 (Mus musculus, UniProt Q8CE22); experiment: EMSA competition with Sf9 lysates producing recombinant DMP1; format: binding; conditions: excess unlabeled oligonucleotide
T1 construct: made in house; host or cells: Sf9 insect cells, pAcYM1 baculovirus vector; used as crude lysate (~4 ng DMP1 per reaction)
T1 sequence (Q8CE22 1-761): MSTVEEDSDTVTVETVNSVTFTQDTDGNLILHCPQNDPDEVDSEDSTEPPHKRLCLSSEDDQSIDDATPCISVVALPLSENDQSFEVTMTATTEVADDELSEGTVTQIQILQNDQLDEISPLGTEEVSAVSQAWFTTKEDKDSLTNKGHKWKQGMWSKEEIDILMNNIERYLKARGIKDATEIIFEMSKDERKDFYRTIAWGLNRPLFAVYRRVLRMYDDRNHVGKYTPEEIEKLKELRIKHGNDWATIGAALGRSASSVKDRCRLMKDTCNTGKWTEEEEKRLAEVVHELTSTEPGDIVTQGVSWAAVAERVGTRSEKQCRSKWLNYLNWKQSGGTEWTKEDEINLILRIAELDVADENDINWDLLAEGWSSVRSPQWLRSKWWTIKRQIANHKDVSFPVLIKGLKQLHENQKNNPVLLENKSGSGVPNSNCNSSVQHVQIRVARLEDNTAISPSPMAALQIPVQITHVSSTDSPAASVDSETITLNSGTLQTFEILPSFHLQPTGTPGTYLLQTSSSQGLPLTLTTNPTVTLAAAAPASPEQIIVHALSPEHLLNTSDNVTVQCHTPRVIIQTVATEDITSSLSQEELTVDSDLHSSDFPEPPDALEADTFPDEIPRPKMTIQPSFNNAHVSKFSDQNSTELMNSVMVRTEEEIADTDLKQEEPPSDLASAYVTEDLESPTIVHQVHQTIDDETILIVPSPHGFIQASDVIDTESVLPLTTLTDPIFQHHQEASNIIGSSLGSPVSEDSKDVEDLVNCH
Experimental: as §1
(§2) Using electrophoretic mobility shift assays (EMSA) performed after mixing a titrated excess (3 ng) of ^32P-end labeled BS1 probe with Sf9 lysates producing DMP1 (˜4 ng recombinant protein per reaction), a BS1-containing protein complex is detected that was competed with an excess of unlabeled BS1 oligonucleotide but not with mutant oligonucleotides M1 and M2 (FIG. 6A). […] More subtle mutations within this region may be tolerated, because high concentrations of M4 competed for BS1 binding to both Ets2 and DMP1 in subsequent studies (FIG. 5B and see below). DMP1 also binds a BS2 probe, and the binding is competed by excess BS2 or BS1 (FIG. 6B). In agreement with the site selection frequencies (FIG. 5A), binding of ^32P-BS1 under equivalent conditions was competed more efficiently by excess unlabeled BS1 than by BS2 (FIG. 6B). […] In agreement, Ets2 binding to BS1 could be competed with excess unlabeled BS1 and M3, but not by BS2 (FIG. 6C). Therefore, although both DMP1 and Ets2 can each bind to BS1 sequences, their exclusive interactions with BS2 and M3, respectively, help to distinguish DMP1 and Ets binding activities (summarized in FIG. 5B).

GST-Ets2 fusion protein = biological target: T2, GST-Ets2 fusion protein (Homo sapiens, UniProt P15036); experiment: EMSA competition with bacterial GST-Ets2 fusion protein; format: binding; conditions: excess unlabeled oligonucleotide
T2 construct: made in house; host or cells: bacteria
T2 sequence (P15036 363-443 limits assumed): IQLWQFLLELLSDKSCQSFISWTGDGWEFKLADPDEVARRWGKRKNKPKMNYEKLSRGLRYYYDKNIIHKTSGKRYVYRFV
Experimental: as §1, §2

cyclin D1 = biological target: T3, cyclin D1 (Mus musculus, UniProt P25322); experiment: Flag immunoprecipitation from SF9 lysates and Western blot for cyclin D1; format: binding; conditions: cotransfected with cyclin D1 in SF9 cells
T3 construct: expressed in transfected cells; host or cells: SF9 insect cells
T3 sequence (P25322 whole entry): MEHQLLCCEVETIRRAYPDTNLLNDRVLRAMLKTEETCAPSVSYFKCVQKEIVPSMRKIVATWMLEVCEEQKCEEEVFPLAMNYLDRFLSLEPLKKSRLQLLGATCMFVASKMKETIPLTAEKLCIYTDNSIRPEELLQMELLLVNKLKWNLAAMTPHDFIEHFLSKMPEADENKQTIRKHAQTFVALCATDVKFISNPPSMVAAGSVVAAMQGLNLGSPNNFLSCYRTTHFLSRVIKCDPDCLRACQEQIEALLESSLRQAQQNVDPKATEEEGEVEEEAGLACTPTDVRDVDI
From the text: The series of DMP1 deletion mutants and the K319E point mutant were then used to determine the cyclin D binding domain of DMP1. Expression vectors encoding murine wild-type DMP1, the corresponding deletion mutations, or K319E (i.e., wildtype DMP1 and M1-M11, defined in FIG. 10, Table 1) were cotransfected with an expression vector encoding cyclin D1 into SF9 cells. Wildtype DMP1 and M1-M11 were expressed containing Flag-tags. SF9 lysates were immunoprecipitated with an antibody raised against the Flag-tag. The immunoprecipitates were resolved individually by gel electrophoresis, and then Western blotted with an antibody raised against cyclin D1. […] Therefore, deletion of the N-terminal domain of DMP1 (i.e., amino acids 1-223) abrogates its ability to interact with D-type cyclins, and thus, the region of DMP1 from residues 1-223 contains a specific cyclin D interaction motif required for D-type cyclin-DMP1 association.

| Substance | 32P-labeled Band (32P-BS2 Probe) | Luciferase Activity [1] | % Cells BrdU Positive (NIH-3T3 fibroblasts) | % Cells BrdU Positive in 10% FCS (NIH-3T3 fibroblasts) | % Cells BrdU Positive in 0.1% FCS (NIH-3T3 fibroblasts) | competition for 32P-BS1 probe binding to DMP1 (recombinant DMP1) | competition for BS1 binding to Ets2 (GST-Ets2 fusion protein) | band corresponding to cyclin D1 in Flag immunoprecipitate (cyclin D1) | competition for BS2 probe binding to DMP1 (recombinant DMP1) |
| --- | --- | --- | --- | --- | --- | --- | --- | --- | --- |
| M6: DMP1 deletion mutant, amino acids 1-86; 170-761 of SEQ ID NO:1 | No | 1.0 | 48% | 44% | 47% |  |  |  |  |
| M2: DMP1 deletion mutant (StuI), amino acids 1-520 of SEQ ID NO:1 | Yes | 3.6 | 20% |  |  | not |  |  |  |
| M7: DMP1 deletion mutant, amino acids 1-169; 238-761 of SEQ ID NO:1 | No | 0.9 | 36% |  |  |  |  |  |  |
| M4: DMP1 deletion mutant (BstBI), amino acids 1-380 of SEQ ID NO:1 | No | 1.0 | 52% |  |  | competed | competed |  |  |
| M5: DMP1 deletion mutant (XbaI and BstEII), amino acids 87-761 of SEQ ID NO:1 | Yes | 6.2 | 32% |  |  |  |  | particularly faint |  |
| oligonucleotide BS1: probe/competitor BS1, SEQ ID NO:10, DMP1 binding site with GGA core (DNA AATTGACCCGGATGTAGGTACGC; chemistry not given here) |  |  |  |  |  | competed | competed |  | competed |
| M10: DMP1 deletion mutant (BstEII and NcoI), amino acids 87-458 of SEQ ID NO:1 | Yes | 1.1 | 56% |  |  |  |  |  |  |
| M1: DMP1 deletion mutant (EcoNI), amino acids 1-661 of SEQ ID NO:1 | Yes | 6.7 | 12% |  |  | not |  |  |  |
| M8: DMP1 deletion mutant, amino acids 1-237; 381-761 of SEQ ID NO:1 | No | 1.1 | 54% | 54% | 54% |  |  |  |  |
| M9: DMP1 5′ deletion mutant, amino acids 234-761 of SEQ ID NO:1 | No | 1.0 | 50% |  |  |  |  | cyclin D1 binding domain is missing |  |
